Test results: ChEMBL document CHEMBL3244261, “3-hydroxyisoxazole-5-hydroxamic acid” (1977)
The source made the active and inactive calls. The rule behind the calls is not given here.

Columns and labels:
P388 = assay: Antitumor activity against mouse P388 cells allografted in mouse assessed as tumor growth inhibition at 100 mg/kg relative to control; format: functional
L1210 = assay: Antitumor activity against mouse L1210 cells allografted in mouse at 100 mg/kg; format: functional, organism-based; parameters: dose 100 mg/kg

Question: What does the source list for O=C(/C=C(\Cl)C(=O)NO)NO?
Answer: T/C (P388): 154%; Activity (L1210): inactive

Question: With O=C(NO)c1cc(O)no1 as the compound, how does the Activity (L1210) read?
Answer: inactive
